In ChEMBL document CHEMBL3045359, “Synthesis, stereochemistry, and antimicrobial evaluation of t(3)-isopropyl-r(2), c(6)-di-2-furanylpiperidin- 4-one and its derivatives” (2006):
In brackets after ≈: the same amount, converted by molar mass.

Tests used:
Type in all cases: functional
Aspergillus flavus = assay: Antifungal activity against Aspergillus flavus after 72 to 96 hr by two-fold serial dilution method
Candida [1] = assay: Antifungal activity against Candida-51 after 72 to 96 hr by two-fold serial dilution method
Candida [2] = assay: Antifungal activity against Candida-6 after 72 to 96 hr by two-fold serial dilution method
Aspergillus niger = assay: Antifungal activity against Aspergillus niger after 72 to 96 hr by two-fold serial dilution method
Staphylococcus aureus = assay: Antibacterial activity against Staphylococcus aureus after 24 hr by two-fold serial dilution method
Bacillus subtilis = assay: Antibacterial activity against Bacillus subtilis after 24 hr by two-fold serial dilution method
Pseudomonas aeruginosa = assay: Antibacterial activity against Pseudomonas aeruginosa after 24 hr by twofold serial dilution method
Enterococcus faecalis = assay: Antibacterial activity against Enterococcus faecalis after 24 hr by two-fold serial dilution method

## C[C@@H]1[C@H](O)[C@@H](C)/C=C/C=C/C=C/C=C/C=C/C=C/C=C/[C@H](O[C@@H]2O[C@H](C)[C@@H](O)[C@H](N)[C@@H]2O)C[C@@H]2O[C@](O)(C[C@@H](O)C[C@@H](O)[C@H](O)CC[C@@H](O)C[C@@H](O)CC(=O)O[C@H]1C)C[C@H](O)[C@H]2C(=O)O [AMPHOTERICIN B]
Aspergillus flavus
  MIC: 50 µg/mL (≈ 54.1 µM)
Candida [1]
  MIC: 25 µg/mL (≈ 27.1 µM)
Candida [2]
  MIC: 25 µg/mL (≈ 27.1 µM)
Aspergillus niger
  MIC: 50 µg/mL (≈ 54.1 µM)

## CCC(=O)N1C(c2ccco2)CC(=O)C(C(C)C)C1c1ccco1 (stereo unspecified)
Aspergillus flavus
  MIC: 25 µg/mL (≈ 75.9 µM)
Candida [1]
  MIC: 50 µg/mL (≈ 152 µM)
Candida [2]
  MIC: 12.5 µg/mL (≈ 37.9 µM)
Aspergillus niger
  MIC: 50 µg/mL (≈ 152 µM)
Staphylococcus aureus
  MIC: 25 µg/mL (≈ 75.9 µM)
Bacillus subtilis
  MIC: 12.5 µg/mL (≈ 37.9 µM)
Pseudomonas aeruginosa
  MIC: 25 µg/mL (≈ 75.9 µM)
Enterococcus faecalis
  MIC: 50 µg/mL (≈ 152 µM)

## CC(C)C1C(=O)CC(c2ccco2)N(C(=O)c2ccccc2)C1c1ccco1 (stereo unspecified)
Aspergillus flavus
  MIC: 25 µg/mL (≈ 66.2 µM)
Candida [1]
  MIC: 12.5 µg/mL (≈ 33.1 µM)
Candida [2]
  MIC: 12.5 µg/mL (≈ 33.1 µM)
Aspergillus niger
  MIC: 25 µg/mL (≈ 66.2 µM)
Staphylococcus aureus
  MIC: 25 µg/mL (≈ 66.2 µM)
Bacillus subtilis
  MIC: 12.5 µg/mL (≈ 33.1 µM)
Pseudomonas aeruginosa
  MIC: 50 µg/mL (≈ 132 µM)
Enterococcus faecalis
  MIC: 50 µg/mL (≈ 132 µM)

## CC(C)C1C(=O)CC(c2ccco2)NC1c1ccco1 (stereo unspecified)
Aspergillus flavus
  MIC: > 100 µg/mL
Candida [1]
  MIC: 25 µg/mL (≈ 91.5 µM)
Candida [2]
  MIC: 50 µg/mL (≈ 183 µM)
Aspergillus niger
  MIC: > 100 µg/mL
Staphylococcus aureus
  MIC: > 100 µg/mL
Bacillus subtilis
  MIC: 100 µg/mL (≈ 366 µM)
Pseudomonas aeruginosa
  MIC: 50 µg/mL (≈ 183 µM)
Enterococcus faecalis
  MIC: > 100 µg/mL

## CN[C@@H]1[C@H](O[C@H]2[C@H](O[C@H]3[C@H](O)[C@@H](O)[C@H](N=C(N)N)[C@@H](O)[C@@H]3N=C(N)N)O[C@@H](C)[C@]2(O)C=O)O[C@@H](CO)[C@H](O)[C@H]1O [STREPTOMYCIN]
Staphylococcus aureus
  MIC: 25 µg/mL (≈ 43 µM)
Bacillus subtilis
  MIC: 12.5 µg/mL (≈ 21.5 µM)
Pseudomonas aeruginosa
  MIC: 25 µg/mL (≈ 43 µM)
Enterococcus faecalis
  MIC: 50 µg/mL (≈ 86 µM)

## CC(C)C1/C(=N/O)CC(c2ccco2)NC1c1ccco1 (stereo unspecified)
Aspergillus flavus
  MIC: 25 µg/mL (≈ 86.7 µM)
Candida [1]
  MIC: 50 µg/mL (≈ 173 µM)
Candida [2]
  MIC: 50 µg/mL (≈ 173 µM)
Aspergillus niger
  MIC: 100 µg/mL (≈ 347 µM)
Staphylococcus aureus
  MIC: 50 µg/mL (≈ 173 µM)
Bacillus subtilis
  MIC: 50 µg/mL (≈ 173 µM)
Pseudomonas aeruginosa
  MIC: 100 µg/mL (≈ 347 µM)
Enterococcus faecalis
  MIC: 50 µg/mL (≈ 173 µM)

## CC(=O)N1C(c2ccco2)CC(=O)C(C(C)C)C1c1ccco1 (stereo unspecified)
Aspergillus flavus
  MIC: 50 µg/mL (≈ 159 µM)
Candida [1]
  MIC: 25 µg/mL (≈ 79.3 µM)
Candida [2]
  MIC: 50 µg/mL (≈ 159 µM)
Aspergillus niger
  MIC: 50 µg/mL (≈ 159 µM)
Staphylococcus aureus
  MIC: 12.5 µg/mL (≈ 39.6 µM)
Bacillus subtilis
  MIC: 12.5 µg/mL (≈ 39.6 µM)
Pseudomonas aeruginosa
  MIC: 25 µg/mL (≈ 79.3 µM)
Enterococcus faecalis
  MIC: 50 µg/mL (≈ 159 µM)

## CC(C)C1C(=O)CC(c2ccco2)N(C=O)C1c1ccco1 (stereo unspecified)
Aspergillus flavus
  MIC: 50 µg/mL (≈ 166 µM)
Candida [1]
  MIC: 50 µg/mL (≈ 166 µM)
Candida [2]
  MIC: 25 µg/mL (≈ 83 µM)
Aspergillus niger
  MIC: 50 µg/mL (≈ 166 µM)
Staphylococcus aureus
  MIC: 50 µg/mL (≈ 166 µM)
Bacillus subtilis
  MIC: 25 µg/mL (≈ 83 µM)
Pseudomonas aeruginosa
  MIC: 50 µg/mL (≈ 166 µM)
Enterococcus faecalis
  MIC: 25 µg/mL (≈ 83 µM)
